Results reported in the NIST ThermoML archive (doi:10.1016/j.tca.2015.06.017).

Assay: xn = mol fraction of the nth substance listed
Details: Liquid, Vibrating tube method

CC(C)(C)Cl [2-chloro-2-methylpropane] + CCCCCCC
mass density [kg/m3]
Details | 303.15 K | 313.15 K | 323.15 K
100 kPa, x2 = 0.0554 | 818.78 | 806.66 | 794.33
100 kPa, x2 = 0.1017 | 809.14 | 797.28 | 785.21
100 kPa, x2 = 0.2004 | 789.72 | 778.36 | 766.79
100 kPa, x2 = 0.3016 | 771.27 | 760.35 | 749.26
100 kPa, x2 = 0.4097 | 753.07 | 742.58 | 731.93
100 kPa, x2 = 0.498 | 739.29 | 729.11 | 718.79
100 kPa, x2 = 0.5983 | 724.71 | 714.88 | 704.9
100 kPa, x2 = 0.7017 | 710.79 | 701.3 | 691.67
100 kPa, x2 = 0.7995 | 698.55 | 689.36 | 680.04
100 kPa, x2 = 0.9032 | 686.4 | 677.52 | 668.52
100 kPa, x2 = 0.9482 | 681.35 | 672.6 | 663.72
2000 kPa, x2 = 0.0554 | 821.47 | 809.52 | 797.48
2000 kPa, x2 = 0.1017 | 811.82 | 800.05 | 788.27
2000 kPa, x2 = 0.2004 | 792.22 | 781 | 769.77
2000 kPa, x2 = 0.3016 | 773.66 | 763.03 | 752.1
2000 kPa, x2 = 0.4097 | 755.51 | 745.07 | 734.59
2000 kPa, x2 = 0.498 | 741.69 | 731.68 | 721.4
2000 kPa, x2 = 0.5983 | 727.08 | 717.4 | 707.53
2000 kPa, x2 = 0.7017 | 713.01 | 703.64 | 694.11
2000 kPa, x2 = 0.7995 | 700.74 | 691.69 | 682.44
2000 kPa, x2 = 0.9032 | 688.51 | 679.76 | 670.78
2000 kPa, x2 = 0.9482 | 683.42 | 674.8 | 665.93
5000 kPa, x2 = 0.0554 | 825.59 | 813.98 | 802.32
5000 kPa, x2 = 0.1017 | 815.8 | 804.42 | 793.03
5000 kPa, x2 = 0.2004 | 796.16 | 785.28 | 774.28
5000 kPa, x2 = 0.3016 | 777.4 | 767.03 | 756.52
5000 kPa, x2 = 0.4097 | 759.02 | 749.04 | 738.91
5000 kPa, x2 = 0.498 | 745.08 | 735.25 | 725.49
5000 kPa, x2 = 0.5983 | 730.47 | 720.98 | 711.44
5000 kPa, x2 = 0.7017 | 716.37 | 707.1 | 697.95
5000 kPa, x2 = 0.7995 | 703.86 | 695.02 | 686.17
5000 kPa, x2 = 0.9032 | 691.56 | 682.92 | 674.4
5000 kPa, x2 = 0.9482 | 686.48 | 677.95 | 669.52
7000 kPa, x2 = 0.0554 | 828.15 | 816.75 | 805.4
7000 kPa, x2 = 0.1017 | 818.38 | 807.19 | 796.06
7000 kPa, x2 = 0.2004 | 798.56 | 787.92 | 777.25
7000 kPa, x2 = 0.3016 | 779.88 | 769.57 | 759.21
7000 kPa, x2 = 0.4097 | 761.39 | 751.4 | 741.54
7000 kPa, x2 = 0.498 | 747.28 | 737.68 | 728.22
7000 kPa, x2 = 0.5983 | 732.58 | 723.34 | 714.07
7000 kPa, x2 = 0.7017 | 718.4 | 709.4 | 700.51
7000 kPa, x2 = 0.7995 | 705.86 | 697.26 | 688.53
7000 kPa, x2 = 0.9032 | 693.5 | 685.15 | 676.71
7000 kPa, x2 = 0.9482 | 688.38 | 680.11 | 671.83
10000 kPa, x2 = 0.0554 | 832 | 820.74 | 809.88
10000 kPa, x2 = 0.1017 | 822.04 | 811.13 | 800.36
10000 kPa, x2 = 0.2004 | 802.32 | 791.72 | 781.49
10000 kPa, x2 = 0.3016 | 783.29 | 773.41 | 763.36
10000 kPa, x2 = 0.4097 | 764.7 | 754.97 | 745.37
10000 kPa, x2 = 0.498 | 750.6 | 741.18 | 731.85
10000 kPa, x2 = 0.5983 | 735.66 | 726.57 | 717.55
10000 kPa, x2 = 0.7017 | 721.43 | 712.75 | 703.96
10000 kPa, x2 = 0.7995 | 708.91 | 700.32 | 691.76
10000 kPa, x2 = 0.9032 | 696.4 | 688.14 | 679.93
10000 kPa, x2 = 0.9482 | 691.28 | 683.1 | 674.96
20000 kPa, x2 = 0.0554 | 843.57 | 833.07 | 823.12
20000 kPa, x2 = 0.1017 | 833.51 | 823.38 | 813.35
20000 kPa, x2 = 0.2004 | 813.29 | 803.53 | 794.06
20000 kPa, x2 = 0.3016 | 793.94 | 784.77 | 775.49
20000 kPa, x2 = 0.4097 | 774.96 | 766.04 | 757.06
20000 kPa, x2 = 0.498 | 760.6 | 751.92 | 743.41
20000 kPa, x2 = 0.5983 | 745.27 | 737.01 | 728.54
20000 kPa, x2 = 0.7017 | 730.77 | 722.7 | 714.57
20000 kPa, x2 = 0.7995 | 717.92 | 709.98 | 702.11
20000 kPa, x2 = 0.9032 | 705.2 | 697.53 | 689.93
20000 kPa, x2 = 0.9482 | 699.94 | 692.28 | 684.86
30000 kPa, x2 = 0.0554 | 853.99 | 844.1 | 834.6
30000 kPa, x2 = 0.1017 | 843.73 | 834.2 | 824.82
30000 kPa, x2 = 0.2004 | 823.05 | 814.01 | 805.07
30000 kPa, x2 = 0.3016 | 803.47 | 794.87 | 786.11
30000 kPa, x2 = 0.4097 | 784.21 | 775.79 | 767.3
30000 kPa, x2 = 0.498 | 769.56 | 761.41 | 753.1
30000 kPa, x2 = 0.5983 | 753.98 | 746.13 | 738.15
30000 kPa, x2 = 0.7017 | 739.18 | 731.52 | 723.78
30000 kPa, x2 = 0.7995 | 726.07 | 718.59 | 711.07
30000 kPa, x2 = 0.9032 | 713.06 | 705.89 | 698.64
30000 kPa, x2 = 0.9482 | 707.83 | 700.51 | 693.47
40000 kPa, x2 = 0.0554 | 863.35 | 854.03 | 844.99
40000 kPa, x2 = 0.1017 | 852.88 | 843.96 | 835.05
40000 kPa, x2 = 0.2004 | 832.1 | 823.46 | 814.92
40000 kPa, x2 = 0.3016 | 812.13 | 804.15 | 795.67
40000 kPa, x2 = 0.4097 | 792.62 | 784.83 | 776.64
40000 kPa, x2 = 0.498 | 777.76 | 770.02 | 762.18
40000 kPa, x2 = 0.5983 | 761.89 | 754.48 | 746.92
40000 kPa, x2 = 0.7017 | 746.9 | 739.67 | 732.28
40000 kPa, x2 = 0.7995 | 733.47 | 726.54 | 719.25
40000 kPa, x2 = 0.9032 | 720.32 | 713.51 | 706.58
40000 kPa, x2 = 0.9482 | 714.92 | 708.05 | 701.31
50000 kPa, x2 = 0.0554 | 871.81 | 862.97 | 854.39
50000 kPa, x2 = 0.1017 | 861.28 | 852.84 | 844.39
50000 kPa, x2 = 0.2004 | 840.18 | 832.15 | 823.81
50000 kPa, x2 = 0.3016 | 820.14 | 812.43 | 804.37
50000 kPa, x2 = 0.4097 | 800.42 | 792.76 | 785.03
50000 kPa, x2 = 0.498 | 785.33 | 777.91 | 770.31
50000 kPa, x2 = 0.5983 | 769.3 | 762.19 | 754.82
50000 kPa, x2 = 0.7017 | 753.99 | 747.09 | 739.94
50000 kPa, x2 = 0.7995 | 740.47 | 733.8 | 726.85
50000 kPa, x2 = 0.9032 | 727.09 | 720.62 | 713.88
50000 kPa, x2 = 0.9482 | 721.65 | 715.12 | 708.52
60000 kPa, x2 = 0.0554 | 879.84 | 871.31 | 863.07
60000 kPa, x2 = 0.1017 | 869.24 | 861.07 | 852.83
60000 kPa, x2 = 0.2004 | 847.92 | 840.18 | 832.16
60000 kPa, x2 = 0.3016 | 827.68 | 820.2 | 812.47
60000 kPa, x2 = 0.4097 | 807.57 | 800.35 | 792.82
60000 kPa, x2 = 0.498 | 792.31 | 785.26 | 778.02
60000 kPa, x2 = 0.5983 | 776.11 | 769.28 | 762.27
60000 kPa, x2 = 0.7017 | 760.58 | 753.92 | 747.09
60000 kPa, x2 = 0.7995 | 746.99 | 740.45 | 733.8
60000 kPa, x2 = 0.9032 | 733.41 | 727.14 | 720.67
60000 kPa, x2 = 0.9482 | 727.85 | 721.6 | 715.25
65000 kPa, x2 = 0.0554 | 883.64 | 875.25 | 867.24
65000 kPa, x2 = 0.1017 | 872.96 | 864.95 | 856.84
65000 kPa, x2 = 0.2004 | 851.56 | 843.84 | 836.1
65000 kPa, x2 = 0.3016 | 831.16 | 823.81 | 816.3
65000 kPa, x2 = 0.4097 | 810.96 | 803.85 | 796.58
65000 kPa, x2 = 0.498 | 795.68 | 788.68 | 781.6
65000 kPa, x2 = 0.5983 | 779.38 | 772.62 | 765.81
65000 kPa, x2 = 0.7017 | 763.77 | 757.22 | 750.52
65000 kPa, x2 = 0.7995 | 749.98 | 743.57 | 737.12
65000 kPa, x2 = 0.9032 | 736.38 | 730.17 | 723.9
65000 kPa, x2 = 0.9482 | 730.82 | 724.57 | 718.48
